The results in this text go back to patent publication US12617771B2, “Diphenylpyrazole compound, and preparation method therefor and application thereof” (NORTHWEST A&F UNIVERSITY, priority 2021, dated 2026).

In general, IC50 refers to the midpoint of a concentration-inhibition curve. Lower therefore signals higher potency. The term inhibition denotes the change of the read-out against control, counted positive when it falls.

Format in all cases: biochemical
One assay concerns the target Nilaparvata lugens GSTs. The assay can be described thus: Inhibition of total GSTs enzyme of Nilaparvata lugens (CDNB method). Here is the method: (§1) Experiment: About 50 mg of larvae/nymphs of nine major pests such as Plutella xylostella, Mythimna separata, Pyrausta nubilalis, Chilo suppressalis, Nilaparvata lugens, Spodoptera frugiperda, Helicoverpa armigera, Carposina sasakii, Spodoptera litura were taken, grounded in a mortar pre-cooled at −80° C., and then 1 mL of 100 mM sodium phosphate buffer (1 mM EDTA, pH 7.2) was added and fully homogenized. The homogenate was transferred to a 1.5 mL centrifuge tube at 4° C., and centrifuged at 14,000 g for 30 minutes, and the supernatant was transferred to a new centrifuge tube as the GSTs total enzyme. The protein concentrations of the above total enzymes were determined using the BCA method.
(§2) 100 μL of PBS buffer (100 mM, pH 7.2) containing 1 mM GSH was taken and placed in a 96-well plate, 5 μg of insect total GSTs enzymes and an appropriate concentration of compounds PXG1-PXG29 (29 compounds) of the present invention were added to each well, after uniformly mixing, and allowed to stand at 30° C. for 10 min. Then 100 μL of PBS buffer (100 mM, pH 7.2) containing 1 mM CDNB was added to each well. Immediately after mixing, the mixture was placed in a microplate reader to measure the absorbance at a wavelength of 340 nm (A 340) once every 1 min, the measurement was carried out continuously for 5 min, the light absorption values of each measuring point were recorded and the inhibition rate in vitro of the compounds with different concentrations against insects total GSTs enzymes were calculated. Each group of assays was repeated three times, and total GSTs enzymes inactivated at 100° C. for 5 min were used as negative controls, and GTX was used as positive controls. GraphPad Prism 5 software was used for analysis and calculation of IC50. Relative inhibition was calculated using the following formula:
(§3) [formula] • wherein, A340 is the change of A340 within 5 minutes for the control group, and A340t is the change of A340 within 5 minutes for the experimental group.

Another assay concerns the target Pyrausta nubilalis GSTs. The assay can be described thus: Inhibition of total GSTs enzyme of Pyrausta nubilalis (CDNB method). As for the experimental part: as §1, §2, §3
Assay [1] deals with Helicoverpa armigera GSTs. The assay can be described thus: Inhibition of total GSTs enzyme of Helicoverpa armigera (CDNB method). As for the experimental part: as §1, §2, §3
A further assay addresses PxGSTσ1 (Plutella xylostella, UniProt Q6F436). The assay can be described thus: Inhibition of PxGSTσ1 recombinant protein. The following applies: read-out: 100 μM Inhibition rate %. Summed up: (§4)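 Recombinant Plutella xylostella GSTs (1 μg) preincubated with compound in 100 mM PBS pH 7.2, 10 min, 30 °C; 1 mM CDNB and 1 mM GSH in PBS then added. A340 read every 1 min for 5 min; inhibition from A340 change vs control, IC50 by curve fit, triplicate.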

The target in another assay is Plutella xylostella GSTs. The assay can be described thus: Inhibition of total GSTs enzyme of Plutella xylostella (CDNB method). Here is the method:
as §1, §2, §3

The target of a further assay is Mythimna separata GSTs. The assay can be described thus: Inhibition of total GSTs enzyme of Mythimna separata (CDNB method). As for the experimental part: as §1, §2, §3
The next assay addresses PxGSTδ1 (Plutella xylostella, UniProt D7URW9). The assay can be described thus: Inhibition of PxGSTδ1 recombinant protein. Particulars: read-out: 100 μM Inhibition rate %. In short, it runs like this: as §4
The target in the next assay is Carposina sasakii GSTs. The assay can be described thus: Inhibition of total GSTs enzyme of Carposina sasakii (CDNB method). As for the experimental part: as §1, §2, §3
The next assay has as its target PxGSTε3 (Plutella xylostella, UniProt O77409). The assay can be described thus: Inhibition of PxGSTε3 recombinant protein. Particulars: read-out: 100 μM Inhibition rate %. In short, it runs like this: as §4
The target of the next assay is PxGSTσ2 (Plutella xylostella, UniProt Q6F443). The assay can be described thus: Inhibition of PxGSTσ2 recombinant protein. The following applies: read-out: 100 μM Inhibition rate %. Summed up: as §4
The next assay concerns the target Spodoptera litura GSTs. The assay can be described thus: Inhibition of total GSTs enzyme of Spodoptera litura (CDNB method). As for the experimental part:
as §1, §2, §3

Assay [2] has as its target Spodoptera frugiperda GSTs. The assay can be described thus: Inhibition of total GSTs enzyme of Spodoptera frugiperda (CDNB method). Here is the method: as §1, §2, §3
In another assay the target is Chilo suppressalis GSTs. The assay can be described thus: Inhibition of total GSTs enzyme of Chilo suppressalis (CDNB method). Here is the method:
as §1, §2, §3

Sequence of PxGSTε3 (O77409 entry or part of it): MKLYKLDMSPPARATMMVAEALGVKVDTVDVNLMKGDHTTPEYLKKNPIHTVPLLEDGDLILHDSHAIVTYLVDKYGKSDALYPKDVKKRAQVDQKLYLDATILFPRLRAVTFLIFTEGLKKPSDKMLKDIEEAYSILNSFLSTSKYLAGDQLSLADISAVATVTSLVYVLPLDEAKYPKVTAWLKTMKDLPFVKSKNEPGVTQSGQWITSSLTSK
Sequence of PxGSTδ1 (D7URW9 entry or part of it): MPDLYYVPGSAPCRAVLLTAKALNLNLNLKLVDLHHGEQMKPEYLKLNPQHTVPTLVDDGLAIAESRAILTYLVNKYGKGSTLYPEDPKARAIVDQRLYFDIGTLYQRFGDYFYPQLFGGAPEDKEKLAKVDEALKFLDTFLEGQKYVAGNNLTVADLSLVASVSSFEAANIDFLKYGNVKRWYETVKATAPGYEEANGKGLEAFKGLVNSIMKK
Sequence of PxGSTσ1 (Q6F436 entry or part of it): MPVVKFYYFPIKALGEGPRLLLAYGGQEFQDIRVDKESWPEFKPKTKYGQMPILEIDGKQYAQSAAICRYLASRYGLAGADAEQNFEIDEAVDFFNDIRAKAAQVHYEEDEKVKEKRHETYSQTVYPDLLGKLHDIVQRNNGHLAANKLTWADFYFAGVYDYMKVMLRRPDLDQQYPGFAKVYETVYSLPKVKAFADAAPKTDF
Sequence of PxGSTσ2 (Q6F443 entry or part of it): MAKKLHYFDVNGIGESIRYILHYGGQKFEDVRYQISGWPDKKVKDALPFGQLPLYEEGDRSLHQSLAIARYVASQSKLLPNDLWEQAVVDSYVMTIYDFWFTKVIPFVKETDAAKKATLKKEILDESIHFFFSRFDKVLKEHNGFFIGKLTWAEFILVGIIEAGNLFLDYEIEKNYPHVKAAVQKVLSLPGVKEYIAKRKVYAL

On to `COc1ccccc1OCC(=O)NNC(=O)c1cc(-c2ccccc2)nn1-c1ccccc1` [PXG18, N′-(1,3-diphenyl-1H-pyrazol-5-yl-carbonyl)-2-(2-methoxyphenoxy)acetohydrazide], for which the IC50 (on Nilaparvata lugens GSTs; against Pyrausta nubilalis GSTs; in assay [1]; against Plutella xylostella GSTs; on Mythimna separata GSTs; at Carposina sasakii GSTs) was more than 100 µM each time. The IC50 (on Spodoptera litura GSTs; in assay [2]; against Chilo suppressalis GSTs) was more than 100 µM each time. For the same compound, the “100 μM Inhibition rate %” value in the assay on Nilaparvata lugens GSTs is given as 45.31%; in the assay on Pyrausta nubilalis GSTs it was 23.84%; in [1], −3.02%; with Plutella xylostella GSTs, 32.94%; in the assay with Mythimna separata GSTs, −2.16%; with Carposina sasakii GSTs it was 13.69%. The “100 μM Inhibition rate %” value with Spodoptera litura GSTs is 7.95%; in assay [2], 28.67%; in the assay on Chilo suppressalis GSTs it was 23.00%. In addition, the inhibition at 100 µM is 31.7% at PxGSTσ1, 82% on PxGSTδ1, -2.47% on PxGSTε3 and 13.5% at PxGSTσ2.

Regarding `O=C(NNC(=O)c1cc(-c2ccccc2)nn1-c1ccccc1)c1ccccc1` [PXG11, N′-(1,3-diphenyl-1H-pyrazol-5-yl-carbonyl) benzohydrazine], the IC50 (against Nilaparvata lugens GSTs; against Pyrausta nubilalis GSTs; in assay [1]; against Plutella xylostella GSTs; against Mythimna separata GSTs; against Carposina sasakii GSTs) was more than 100 µM each time. Also, the IC50 (at Spodoptera litura GSTs; in assay [2]; at Chilo suppressalis GSTs) was more than 100 µM throughout. Moreover, the “100 μM Inhibition rate %” value in the assay on Nilaparvata lugens GSTs was 8.16%; in the assay with Pyrausta nubilalis GSTs it was 23.84%; in assay [1] it was 8.09%; in the assay on Plutella xylostella GSTs, 22.90%; with Mythimna separata GSTs it was 31.76%; in the assay on Carposina sasakii GSTs, 76.09%. Moreover, the “100 μM Inhibition rate %” value in the assay with Spodoptera litura GSTs is 24.52%; in assay [2], 20.95%; in the assay with Chilo suppressalis GSTs it was 54.79%. Besides, the inhibition at 100 µM is 60.7% at PxGSTσ1, 35.3% at PxGSTδ1, -7.28% on PxGSTε3 and 22.6% on PxGSTσ2.

Consider `CC1(c2ccccc2)NC(=O)N(NC(=O)c2cc(-c3ccccc3)nn2-c2ccccc2)C1=O` (stereo not drawn) [PXG12, N-(4-methyl-2,5-dioxo-4-phenylimidazolin-1-yl)-1,3-diphenyl-1H-pyrazol-5-yl-carboxamide], for which the IC50 (on Nilaparvata lugens GSTs; against Pyrausta nubilalis GSTs; in assay [1]; against Plutella xylostella GSTs; at Mythimna separata GSTs; against Carposina sasakii GSTs) was more than 100 µM in each case. In addition, the IC50 (at Spodoptera litura GSTs; in assay [2]; against Chilo suppressalis GSTs) was more than 100 µM each time. For the same compound, the “100 μM Inhibition rate %” value with Nilaparvata lugens GSTs is given as −3.30%; with Pyrausta nubilalis GSTs it was 19.48%; in [1] it was −5.00%; with Plutella xylostella GSTs, 15.08%; in the assay with Mythimna separata GSTs it was 19.42%; in the assay with Carposina sasakii GSTs it was 17.94%. Also, the figures for the “100 μM Inhibition rate %” value (with Spodoptera litura GSTs; in assay [2]; with Chilo suppressalis GSTs) were 4.60%, 12.52% and 29.54%, respectively. Further, the inhibition at 100 µM at PxGSTσ1 stood at 48.3%; on PxGSTδ1, 40.2%; on PxGSTε3, 10.9%; at PxGSTσ2, 33.6%.

On to `CC1CCC2(CC1)NC(=O)N(NC(=O)c1cc(-c3ccccc3)nn1-c1ccccc1)C2=O` (stereo not drawn) [PXG16, N-{8-methyl-2,4-dioxo-1,3-diazaspiro[4.5]dec-3-yl}-1,3-diphenyl-1H-pyrazol-5-yl-carboxamide], for which the IC50 (at Nilaparvata lugens GSTs; at Pyrausta nubilalis GSTs; in assay [1]; at Plutella xylostella GSTs; against Mythimna separata GSTs; against Carposina sasakii GSTs) was more than 100 µM in each case. Besides, the IC50 (on Spodoptera litura GSTs; in assay [2]; against Chilo suppressalis GSTs) was more than 100 µM in each case. Also, the “100 μM Inhibition rate %” value in the assay on Nilaparvata lugens GSTs is on record as −1.00%; in the assay with Pyrausta nubilalis GSTs, 0.41%; in [1] it was 2.28%; in the assay on Plutella xylostella GSTs, 8.64%; with Mythimna separata GSTs it was 10.50%; in the assay on Carposina sasakii GSTs, 6.98%. Also, the results for the “100 μM Inhibition rate %” value (in the assay with Spodoptera litura GSTs; in [2]; in the assay on Chilo suppressalis GSTs) were −0.15%, −1.72% and 10.53%, respectively. Also, the inhibition at 100 µM at PxGSTσ1 amounted to 70.5%; at PxGSTδ1, 5.35%; on PxGSTε3 it was 4.12%; on PxGSTσ2, 39.3%.

For the compound `CN(C)S(=O)(=O)c1cccc(C(=O)NNC(=O)c2cc(-c3ccccc3)nn2-c2ccccc2)c1` [PXG9, 3-[N′-(1,3-diphenyl-1H-pyrazol-5-yl-carbonyl) hydrazinocarbonyl]-N,N-dimethylphenyl-1-sulfonamide], the IC50 (against Nilaparvata lugens GSTs; at Pyrausta nubilalis GSTs; in assay [1]; against Plutella xylostella GSTs; against Mythimna separata GSTs; against Carposina sasakii GSTs) was more than 100 µM throughout. For the same compound, the IC50 (against Spodoptera litura GSTs; in assay [2]; on Chilo suppressalis GSTs) was more than 100 µM throughout. Also, the “100 μM Inhibition rate %” value in the assay on Nilaparvata lugens GSTs is −10.48%; in the assay on Pyrausta nubilalis GSTs, 5.71%; in assay [1] it was 5.25%; in the assay on Plutella xylostella GSTs, 3.94%; with Mythimna separata GSTs, 2.72%; with Carposina sasakii GSTs it was 12.55%. Besides, the entries for the “100 μM Inhibition rate %” value (with Spodoptera litura GSTs; in [2]; with Chilo suppressalis GSTs) were 12.58%, 5.56% and 34.79%, respectively. The inhibition at 100 µM is 28.6% on PxGSTσ1, 30.4% at PxGSTδ1, -3.88% at PxGSTε3 and 31.4% at PxGSTσ2.

On to `COc1cc(C(=O)NNC(=O)c2cc(-c3ccccc3)nn2-c2ccccc2)cc(OC)c1OC` [PXG4, N′-(1,3-diphenyl-1H-pyrazol-5-yl-carbonyl)-3,4,5-trimethoxybenzohydrazine], for which the IC50 (at Nilaparvata lugens GSTs; at Pyrausta nubilalis GSTs; in assay [1]; at Plutella xylostella GSTs; at Mythimna separata GSTs; against Carposina sasakii GSTs) was more than 100 µM throughout. Besides, the IC50 (against Spodoptera litura GSTs; in [2]; at Chilo suppressalis GSTs) was more than 100 µM each time. The “100 μM Inhibition rate %” value with Nilaparvata lugens GSTs was −5.99%; in the assay with Pyrausta nubilalis GSTs it was −7.23%; in assay [1] it was 4.07%; in the assay with Plutella xylostella GSTs it was −10.64%; in the assay on Mythimna separata GSTs it was 0.00%; in the assay with Carposina sasakii GSTs, 2.34%. Also, the entries for the “100 μM Inhibition rate %” value (in the assay on Spodoptera litura GSTs; in assay [2]; in the assay on Chilo suppressalis GSTs) were −17.52%, −7.57% and −10.90%, respectively. In addition, the inhibition at 100 µM stood at 43.6% at PxGSTσ1, 18.4% at PxGSTδ1, 8.88% on PxGSTε3 and 21.6% at PxGSTσ2.
